This note sets out measurements from PubChem BioAssay AID342 (DTP/NCI, 2004).

Values joined by “and” are separate entries in the source; they are usually repeats but may differ in a detail not shown here. Equal entries are not always repeated.

For this assay, the system named is Swiss mice, Sarcoma 180 sc, mean tumor weight T/C. Briefly: NCI In Vivo Anticancer Drug Screen. Data for tumor model Sarcoma 180 (subcutaneous) in Swiss mice. Conditions: endpoint: mean tumor weight, higher = larger tumour. The method in brief: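 Transplantable tumors were established in mice, compound was given, then survival or tumor size was recorded. The treated value was divided by the vehicle-control value.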

Consider `CC(=O)OCC(=O)[C@@]1(O)CC[C@H]2[C@@H]3C=C(C)C4=CC(=O)CC[C@]4(C)[C@H]3[C@@H](O)C[C@@]21C`, for which the T/C was 67 % of control (dose: 6.1 mg/kg/injection, schedule: Q01DX007 (sc), vehicle: steriod suspending solution); 49 % of control (dose: 10.0 mg/kg/injection, schedule: Q#A X014 (ip), vehicle: methylcellulose (MC)); 43 % of control (dose: 11.8 mg/kg/injection, schedule: Q01DX007 (sc), vehicle: steriod suspending solution); 50 % of control (dose: 12.5 mg/kg/injection, schedule: Q01DX007 (sc), vehicle: steriod suspending solution); 41 % of control and 44 % of control (dose: 15.0 mg/kg/injection, schedule: Q#A X014 (ip), vehicle: methylcellulose (MC)); 40 % of control (dose: 17.7 mg/kg/injection, schedule: Q01DX007 (sc), vehicle: steriod suspending solution). Besides, the T/C is 83 % of control (dose: 20.0 mg/kg/injection, schedule: Q01DX007 (sc), vehicle: steriod suspending solution); 60 % of control and 64 % of control (dose: 22.5 mg/kg/injection, schedule: Q#A X014 (ip), vehicle: methylcellulose (MC)); 39 % of control (dose: 25.0 mg/kg/injection, schedule: Q01DX007 (sc), vehicle: steriod suspending solution); 52 % of control (dose: 26.6 mg/kg/injection, schedule: Q01DX007 (sc), vehicle: steriod suspending solution); 55 % of control (dose: 30.0 mg/kg/injection, schedule: Q01DX007 (sc), vehicle: steriod suspending solution); 31 % of control and 54 % of control (dose: 33.75 mg/kg/injection, schedule: Q#A X014 (ip), vehicle: methylcellulose (MC)). Also, the T/C is, setting by setting: (dose: 40.0 mg/kg/injection, schedule: Q01DX007 (sc), vehicle: steriod suspending solution) 41 % of control; (dose: 45.0 mg/kg/injection, schedule: Q01DX007 (sc), vehicle: steriod suspending solution) 58 % of control and 64 % of control; (dose: 53.0 mg/kg/injection, schedule: Q01DX007 (sc), vehicle: steriod suspending solution) 71 % of control; (dose: 60.0 mg/kg/injection, schedule: Q01DX007 (sc), vehicle: steriod suspending solution) 36 % of control; (dose: 67.5 mg/kg/injection, schedule: Q01DX007 (sc), vehicle: steriod suspending solution) 60 % of control; (dose: 80.0 mg/kg/injection, schedule: Q01DX007 (sc), vehicle: steriod suspending solution) 53 % of control. Besides, the T/C was 31 % of control (dose: 90.0 mg/kg/injection, schedule: Q01DX007 (sc), vehicle: steriod suspending solution); 26 % of control (dose: 100.0 mg/kg/injection, schedule: Q01DX007 (sc), vehicle: steriod suspending solution); 51 % of control (dose: 120.0 mg/kg/injection, schedule: Q01DX007 (sc), vehicle: steriod suspending solution); 27 % of control (dose: 135.0 mg/kg/injection, schedule: Q01DX007 (sc), vehicle: steriod suspending solution); 54 % of control (dose: 150.0 mg/kg/injection, schedule: Q01DX007 (sc), vehicle: steriod suspending solution); 32 % of control (dose: 180.0 mg/kg/injection, schedule: Q01DX007 (sc), vehicle: steriod suspending solution). For the same compound, the T/C (dose: 202.5 mg/kg/injection, schedule: Q01DX007 (sc), vehicle: steriod suspending solution) was 24 % of control.

With `O=S(=O)(O)c1cccnc1`, the T/C is 70 % of control (dose: 17.47 mg/kg/injection, schedule: Q#A X014 (ip), vehicle: carboxymethylcellulose (CMC)); 64 % of control (dose: 31.25 mg/kg/injection, schedule: Q#A X014 (ip), vehicle: carboxymethylcellulose (CMC)); 80 % of control (dose: 34.94 mg/kg/injection, schedule: Q#A X014 (ip), vehicle: carboxymethylcellulose (CMC)); 105 % of control (dose: 62.5 mg/kg/injection, schedule: Q#A X014 (ip), vehicle: carboxymethylcellulose (CMC)); 89 % of control (dose: 69.87 mg/kg/injection, schedule: Q#A X014 (ip), vehicle: carboxymethylcellulose (CMC)); 63 % of control (dose: 125.0 mg/kg/injection, schedule: Q#A X014 (ip), vehicle: carboxymethylcellulose (CMC)). For the same compound, the T/C was 97 % of control (dose: 139.75 mg/kg/injection, schedule: Q#A X014 (ip), vehicle: carboxymethylcellulose (CMC)) and 124 % of control (dose: 250.0 mg/kg/injection, schedule: Q#A X014 (ip), vehicle: carboxymethylcellulose (CMC)).

As to `OCC1OC(n2cnc3c(=S)nc[nH]c32)C(O)C1O` (centres undefined), the T/C reads like this: (dose: 10.7 mg/kg/injection, schedule: Q01DX007 (ip), vehicle: carboxymethylcellulose (CMC)) 51 % of control; (dose: 17.04 mg/kg/injection, schedule: Q01DX007 (ip), vehicle: carboxymethylcellulose (CMC)) 61 % of control; (dose: 20.0 mg/kg/injection, schedule: Q#A X014 (ip), vehicle: methylcellulose (MC)) 63 % of control; (dose: 21.3 mg/kg/injection, schedule: Q01DX007 (ip), vehicle: carboxymethylcellulose (CMC)) 40 % of control and 64 % of control; (dose: 28.4 mg/kg/injection, schedule: Q01DX007 (ip), vehicle: carboxymethylcellulose (CMC)) 48 % of control; (dose: 37.5 mg/kg/injection, schedule: Q#A X014 (ip), vehicle: methylcellulose (MC)) 56 % of control. In addition, the T/C by setting is: (dose: 42.6 mg/kg/injection, schedule: Q01DX007 (ip), vehicle: carboxymethylcellulose (CMC)) 42 % of control and 46 % of control; (dose: 62.0 mg/kg/injection, schedule: Q01DX007 (ip), vehicle: carboxymethylcellulose (CMC)) 44 % of control; (dose: 75.0 mg/kg/injection, schedule: Q#A X014 (ip), vehicle: methylcellulose (MC)) 22 % of control; (dose: 85.2 mg/kg/injection, schedule: Q01DX007 (ip), vehicle: carboxymethylcellulose (CMC)) 41 % of control and 44 % of control; (dose: 100.0 mg/kg/injection, schedule: Q#A X014 (ip), vehicle: methylcellulose (MC)) 20 % of control and 24 % of control; (dose: 125.0 mg/kg/injection, schedule: Q01DX007 (ip), vehicle: carboxymethylcellulose (CMC)) 59 % of control. Also, the T/C by setting is: (dose: 250.0 mg/kg/injection, schedule: Q01DX007 (ip), vehicle: carboxymethylcellulose (CMC)) 25 % of control; (dose: 300.0 mg/kg/injection, schedule: Q01DX007 (ip), vehicle: carboxymethylcellulose (CMC)) 21 % of control; (dose: 400.0 mg/kg/injection, schedule: Q01DX007 (ip), vehicle: carboxymethylcellulose (CMC)) 19 % of control; (dose: 450.0 mg/kg/injection, schedule: Q01DX007 (ip), vehicle: carboxymethylcellulose (CMC)) 11 % of control.

For `Nc1c(Br)cc2c(c1Br)Cc1cc(Cl)ccc1-2`, the T/C by setting is: (dose: 27.0 mg/kg/injection, schedule: Q01DX007 (ip), vehicle: other) 52 % of control; (dose: 41.0 mg/kg/injection, schedule: Q01DX007 (ip), vehicle: other) 44 % of control; (dose: 62.0 mg/kg/injection, schedule: Q01DX007 (ip), vehicle: other) 60 % of control.

For `CC(=O)Nc1c(Cl)cc2c(c1Cl)Cc1cc([N+](=O)[O-])ccc1-2`, where the note is “dose: 222.0 mg/kg/injection, schedule: Q01DX007 (ip), vehicle: saline”, the T/C is 59 % of control.

Turning to `CN(N=O)C(=O)Nc1c[nH]c(=O)[nH]c1=O`, where the note is “dose: 25.0 mg/kg/injection, schedule: Q#A X014 (ip), vehicle: carboxymethylcellulose (CMC)”, the T/C was 33 % of control.

As to `COc1cc(C(=O)CC2CCCCN2)ccc1O` (centres undefined), the T/C (dose: 55.0 mg/kg/injection, schedule: Q01DX007 (ip), vehicle: saline) was 62 % of control; the T/C (dose: 83.0 mg/kg/injection, schedule: Q01DX007 (ip), vehicle: saline) was 120 % of control; the T/C (dose: 125.0 mg/kg/injection, schedule: Q01DX007 (ip), vehicle: saline) was 95 % of control and 96 % of control; the T/C (dose: 250.0 mg/kg/injection, schedule: Q01DX007 (ip), vehicle: saline) was 83 % of control.

As for `O=C(CCN1CC1)OCCOC(=O)CCN1CC1`, the T/C reads like this: (dose: 4.0 mg/kg/injection, schedule: Q#A X014 (ip), vehicle: methylcellulose (MC)) 44 % of control; (dose: 6.0 mg/kg/injection, schedule: Q#A X014 (ip), vehicle: methylcellulose (MC)) 60 % of control; (dose: 9.0 mg/kg/injection, schedule: Q#A X014 (ip), vehicle: methylcellulose (MC)) 50 % of control.

Turning to `O=c1[nH]c2cc(Cl)c(Cl)cc2o1`, the T/C reads like this: (dose: 19.0 mg/kg/injection, schedule: Q01DX007 (ip), vehicle: carboxymethylcellulose (CMC)) 83 % of control; (dose: 37.5 mg/kg/injection, schedule: Q01DX007 (ip), vehicle: carboxymethylcellulose (CMC)) 90 % of control; (dose: 75.0 mg/kg/injection, schedule: Q01DX007 (ip), vehicle: carboxymethylcellulose (CMC)) 94 % of control; (dose: 150.0 mg/kg/injection, schedule: Q01DX007 (ip), vehicle: carboxymethylcellulose (CMC)) 81 % of control.

Regarding `O=C(O)c1cc2ccccc2c(Br)c1O.OC1CCC(Br)C2CCC[N-]C12.[Cu+]`, the T/C was 74 % of control (dose: 0.5 mg/kg/injection, schedule: Q01DX007 (ip), vehicle: carboxymethylcellulose (CMC)); 90 % of control and 95 % of control (dose: 1.0 mg/kg/injection, schedule: Q01DX007 (ip), vehicle: carboxymethylcellulose (CMC)); 101 % of control and 109 % of control (dose: 2.0 mg/kg/injection, schedule: Q01DX007 (ip), vehicle: carboxymethylcellulose (CMC)); 83 % of control (dose: 4.0 mg/kg/injection, schedule: Q01DX007 (ip), vehicle: carboxymethylcellulose (CMC)).
